Patent publication US20210299079A1, “MONOMETHYL FUMARATE-CARRIER CONJUGATES AND METHODS OF THEIR USE” (Flagship Pioneering Innovations V, Inc., priority 2018, published 2021)
Counter-ions that a name gives are not always drawn.

Assays:
[1] = Stability of conjugates in Simulated Intestinal Fluid (SIF); format: in vitro ADME; details: SIF pH 6.7 with pancreatin, 37° C., 1 μM compound
Summary of the method: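 Compounds at 1 μM in fresh simulated intestinal fluid: FaSSIF powder in pH 6.7 phosphate buffer with pancreatin. Agitated at 37 °C; aliquots taken at T0 and regular intervals, quenched with 1 volume acetonitrile. Degradation rates determined by LC/MS.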

[2] = In vitro Colonic Material Stability Assay; format: in vitro ADME; details: colonic material slurry in YCFAC media, anaerobic, 1 or 10 μM
Experimental: Assay 3. In vitro Colonic Material Stability Assay. This assay was used to assess the stability of a conjugate in a large intestine. All experiments were performed in an anaerobic chamber containing 90% nitrogen, 5% hydrogen and 5% carbon dioxide. Colonic material was resuspended as a slurry (15% w/v final concentration) in pre-reduced, anaerobically sterilized dilution blanks (Anaerobe Systems AS-908). The colonic material was then inoculated into 96 well plates containing YCFAC media (Anaerobe Systems AS-680) or other suitable media (6.7 μL slurry into 1 mL total media). Compounds or groups of compounds were added to each individual well to reach a final analyte concentration of 1 or 10 μM, and the material was mixed by pipetting. Sample was removed after set timepoints (0, 120, 240, 480, 1440, 2880 minutes after initiation of the assay), quenched with acetonitrile containing internal standard, and analyzed by LC/MS.

[3] = Stability of conjugates in Simulated Gastric Fluid (SGF); format: in vitro ADME; details: SGF pH 1.6 with pepsin, 37° C., 1 μM compound
Summary of the method: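 Compound at 1 μM (from 1 mM DMSO stock) in pH 1.6 NaCl medium with FaSSIF powder and 0.1 mg/mL pepsin, mixed at 37° C. Aliquots quenched with equal volume acetonitrile at T0 and regular intervals; LC/MS gives degradation rate.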

[4] = test system: MIP-1α; test: Neutrophil Chemokine Production Assay: MIP-1α; format: cell-based; details: human neutrophils, 12 h
Experimental: (§1) A volume 25 mL of human blood was layered over 15 mL of Histopaque®-1077 and centrifuged at 500 g, R^T, for 30 min with no break applied to the centrifuge. The PBMC band and Histopaque®-1077 layer were removed leaving behind the bottom red layer which was mixed with 40 mL of 1× red blood cell (RBC) lysis buffer (Sigma-Aldrich) was and split into two 50 mL tubes. The volume for both fractions was brought to 50 mL with RBC lysis buffer, mixed by inversion, and then incubated at RT for 10 min. Solutions were centrifuged at 250 g, for 10 min at RT and the supernatant liquids removed. The reddish pellets were re-suspended in 1 mL of RBC lysis buffer and combined. The cell suspension was incubated for 5 min at RT in RBC lysis buffer. After incubation 45 mL of Hanks Balanced Salt Solution with no calcium, magnesium or phenol red (HBSS—) was added, the cell suspension was spun (250 g for 10 min at RT), and supernatant liquids were removed. The white pellet was re-suspended in 1 mL of HBSS—, and cell counts were determined. The neutrophil cell suspension was brought to a concentration of 1.11e6 cells/mL in RPMI complete (Sigma-Aldrich), and 180 μL of cell suspension was transferred to all wells within a sterile 96-well tissue culture treated plate resulting in 2.0×10^5 cells/well. […] After incubation, 10 μL of 2 μg/mL LPS solution in RPMI complete was added to each well except for control wells, which received an additional 10 μL of media. Cells were incubated for 12 h (37° C., 5% CO2), after which plates were centrifuged at 250 g, RT, for 5 min and supernatant liquids were obtained and stored at −80° C. until analyzed via Luminex® Multiplex Assay for various chemokines and cytokines. Three data points were acquired from two different blood donors and averaged.

[5] = test system: IL-8; test: Neutrophil Chemokine Production Assay: IL-8; format: cell-based; details: human neutrophils, 12 h
Experimental: as §1

[6] = test system: MIP-1β; test: Neutrophil Chemokine Production Assay: MIP-1β; format: cell-based; details: human neutrophils, 12 h
Experimental: as §1

SMILES	Assay 2 (SIF) (% @ Remaining 4 hours) [1]	Assay 3 (% Remaining at 24 h) [2]	Assay 1 (SGF) (% Remaining @ 1 hour) [3]	% MIP-1α (Vehicle + LPS = 100%) ([4]; Conc. 200.0 μM)	% MIP-1α (Vehicle + LPS = 100%) ([4]; Conc. 2000.0 μM)	% IL-8 (Vehicle + LPS = 100%) ([5]; Conc. 200.0 μM)	% IL-8 (Vehicle + LPS = 100%) ([5]; Conc. 2000.0 μM)	% MIP-1β (DMSO + LPS = 100%) ([6]; Conc. 200.0 μM)	% MIP-1β (DMSO + LPS = 100%) ([6]; Conc. 2000.0 μM)
CCCC(=O)OC[C@H]1O[C@H](OC(=O)/C=C/C(=O)OC)[C@H](OC(=O)CCC)[C@@H](OC(=O)CCC)[C@@H]1OC(=O)CCC [Compound 11, Methyl ((2R,3R,4S,5R,6R)-3,4,5-tris(butyryloxy)-6-((butyryloxy)methyl)tetrahydro-2H-pyran-2-yl) fumarate]	B (B: 25-75% of the tested compound remaining)	B (B: 25-75% of the tested compound remaining)	B (B: 25-75% of the tested compound remaining)						
CCCC(=O)O[C@@H]1[C@@H](OC(=O)CCC)[C@@H](OC(=O)/C=C/C(=O)OC)OC[C@@H]1OC(=O)CCC [Compound 12, Methyl ((2R,3R,4S,5S)-3,4,5-tris(butyryloxy)tetrahydro-2H-pyran-2-yl) fumarate]	A (A: <25% of the tested compound remaining)	C (C: >75% of the tested compound remaining)	C (C: >75% of the tested compound remaining)						
CCCC(=O)O[C@H]1[C@H](OC(=O)CCC)[C@H](OC(=O)/C=C/C(=O)OC)O[C@@H](C)[C@H]1OC(=O)CCC [Compound 13, Methyl ((2S,3S,4R,5R,6S)-3,4,5-tris(butyryloxy)-6-methyltetrahydro-2H-pyran-2-yl) fumarate]	A (A: <25% of the tested compound remaining)	C (C: >75% of the tested compound remaining)	B (B: 25-75% of the tested compound remaining)						
CCCC(=O)O[C@@H]1[C@@H](OC(=O)CCC)[C@H](C)O[C@H](OC(=O)/C=C/C(=O)OC)[C@@H]1OC(=O)CCC [Compound 14, Methyl ((2R,3R,4R,5S,6S)-3,4,5-tris(butyryloxy)-6-methyltetrahydro-2H-pyran-2-yl) fumarate]	A (A: <25% of the tested compound remaining)	C (C: >75% of the tested compound remaining)	C (C: >75% of the tested compound remaining)						
CCCC(=O)O[C@@H]1O[C@H](COC(=O)/C=C/C(=O)OC)[C@@H](OC(=O)CCC)[C@H](OC(=O)CCC)[C@H]1OC(=O)CCC [Compound 23, Methyl (((2R,3R,4S,5R,6S)-3,4,5,6-tetrakis(butyryloxy)tetrahydro-2H-pyran-2-yl)methyl) fumarate]	A (A: <25% of the tested compound remaining)	A (A: <25% of the tested compound remaining)	B (B: 25-75% of the tested compound remaining)						
CCCC(=O)O[C@@H]1[C@@H](OC(=O)CCC)[C@H](OC(=O)/C=C/C(=O)OC)OC[C@@H]1OC(=O)CCC [Compound 36, 1-methyl (2S,3R,4S,5S)-3,4,5-tris(butanoyloxy)oxan-2-yl (2E)-but-2-enedioate]	A (A: <25% of the tested compound remaining)	C (C: >75% of the tested compound remaining)	C (C: >75% of the tested compound remaining)						
CCCC(=O)O[C@@H]1[C@@H](OC(=O)CCC)[C@H](OC(=O)/C=C/C(=O)OC)O[C@H](CO)[C@H]1OC(=O)CCC [Compound 38, 1-methyl (2S,3R,4S,5R,6R)-3,4,5-tris(butanoyloxy)-6-(hydroxymethyl)oxan-2-yl (2E)-but-2-enedioate]	A (A: <25% of the tested compound remaining)	A (A: <25% of the tested compound remaining)	C (C: >75% of the tested compound remaining)						
CCCC(=O)O[C@@H]1[C@@H](OC(=O)CCC)[C@@H](OC(=O)/C=C/C(=O)OC)O[C@H](CO)[C@H]1OC(=O)CCC [Compound 39, 1-methyl (2R,3R,4S,5R,6R)-3,4,5-tris(butanoyloxy)-6-(hydroxymethyl)oxan-2-yl (2E)-but-2-enedioate]	A (A: <25% of the tested compound remaining)	A (A: <25% of the tested compound remaining)	C (C: >75% of the tested compound remaining)						
CCCC(=O)O[C@H]1O[C@H](COC(=O)/C=C/C(=O)OC)[C@@H](OC(=O)CCC)[C@H](OC(=O)CCC)[C@H]1OC(=O)CCC [Compound 40, 1-methyl 4-[(2R,3R,4S,5R,6R)-3,4,5,6-tetrakis(butanoyloxy)oxan-2-yl]methyl (2E)-but-2-enedioate]	A (A: <25% of the tested compound remaining)	A (A: <25% of the tested compound remaining)	B (B: 25-75% of the tested compound remaining)						
CC(O)CC(=O)O (stereo not drawn) [β-hydroxybutyric acid]				− (− = >90% Vehicle)	++ (++ = <70% Vehicle)	− (− = >90% Vehicle)	+ (+ = <90% Vehicle)	+ (+ = <90% Vehicle)	+ (+ = <90% Vehicle)
